The results in this text go back to US20240101521A1, “DIAMINOTRIAZINE COMPOUNDS” (BASF SE, priority 2021, published 2024).

Common to all, as to test: greenhouse pre-emergence herbicidal test
Common to all, as to format: in vivo

Assay [1] relates to Digitaria sanguinalis. As to conditions: scale 0 to 100. The essentials: (§1)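 Spray application right after sowing of active ingredients suspended or emulsified in water, onto loamy sand with about 3.0% humus; pots covered with plastic hoods until rooted, kept at 10-25° C. or 20-35° C. depending on species. Damage scored 0-100 (100 = no emergence or complete aerial destruction) after 2 to 4 weeks.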

Assay [2] relates to Abutilon theophrasti. As to conditions: scale 0 to 100. In outline: as §1
Assay [3] relates to Echinochloa crus-galli. Particulars: scale 0 to 100. The essentials: as §1
The subject of assay [4] is Setaria faberi. As to conditions: scale 0 to 100. The essentials: as §1
Assay [5] relates to Alopecurus myosuroides. Particulars: scale 0 to 100. In outline: as §1
Assay [6] deals with Amaranthus retroflexus. As to conditions: scale 0 to 100. In outline: as §1
The subject of assay [7] is Apera spica-venti. As to conditions: 31 g/ha, scale 0 to 100. In outline: as §1
Assay [8] has as its system Lolium multiflorum. Particulars: pre-emergence, 62,5 g/ha, scale 0 to 100. In outline: as §1

In the case of `COc1c(Cl)ccc(F)c1Nc1nc(N)nc(C(C)(C)F)n1` [Example 2], the herbicidal activity stood at 100% in assay [1] (pre-emergence, 62,5 g/ha); 100% in assay [2] (pre-emergence, 62,5 g/ha); 100% in assay [3] (pre-emergence, 62,5 g/ha).

Consider `COc1c(Cl)cc(C)c(F)c1Nc1nc(N)nc(C(C)(C)F)n1` [Example 3], for which the herbicidal activity in assay [1] (pre-emergence, 62,5 g/ha) worked out at 100%; in assay [2] (pre-emergence, 62,5 g/ha) it was 100%; in assay [3] (pre-emergence, 62,5 g/ha), 100%.

With `COc1c(Br)ccc(F)c1Nc1nc(N)nc(C(C)(C)F)n1` [Example 4, N4-(3-bromo-6-fluoro-2-methoxy-phenyl)-6-(1-fluoro-1-methyl-ethyl)-1,3,5-triazine-2,4-diamine], the herbicidal activity was 100% in assay [1] (pre-emergence, 62,5 g/ha); 100% in assay [2] (pre-emergence, 62,5 g/ha); 100% in assay [3] (pre-emergence, 62,5 g/ha).

For `COc1c(Br)ccc(F)c1Nc1nc(N)nc(C2(F)CCCCC2)n1` [Example 5], the herbicidal activity came out at 100% in assay [1] (pre-emergence, 250 g/ha); 90% in assay [2] (pre-emergence, 250 g/ha); 85% in assay [3] (pre-emergence, 250 g/ha).

As to `COc1c(Cl)cc(F)c(F)c1Nc1nc(N)nc(C2(F)CCCC2)n1` [Example 11], the herbicidal activity in assay [4] (pre-emergence, 250 g/ha) is reported as 100%; in assay [3] (pre-emergence, 250 g/ha), 100%; in assay [5] (pre-emergence, 250 g/ha) it was 100%.

For `CC(C)(F)c1nc(N)nc(Nc2c(F)ccc(Br)c2OC2CC2)n1` [Example 13], the herbicidal activity in assay [4] (pre-emergence, 62,5 g/ha) came out at 100%; in assay [3] (pre-emergence, 62,5 g/ha), 100%; in assay [5] (pre-emergence, 62,5 g/ha) it was 100%.

On to `Nc1nc(Nc2c(F)ccc(Br)c2OC2CC2)nc(C2(F)CCCC2)n1` [Example 14], for which the herbicidal activity in assay [4] (pre-emergence, 125 g/ha) is reported as 100%; in assay [3] (pre-emergence, 125 g/ha), 98%; in assay [5] (pre-emergence, 125 g/ha), 98%.

On to `CC#CCOc1c(Br)cc(F)c(F)c1Nc1nc(N)nc(C(C)(C)F)n1` [Example 15], for which the herbicidal activity in assay [4] (pre-emergence, 125 g/ha) amounted to 100%; in assay [3] (pre-emergence, 125 g/ha) it was 100%; in assay [5] (pre-emergence, 125 g/ha) it was 100%.

`CC(C)(F)c1nc(N)nc(Nc2c(F)c(F)cc(Cl)c2OCC#CC2CC2)n1` [Example 30]: the herbicidal activity is 100% in assay [4] (pre-emergence, 31 g/ha); 100% in assay [2] (pre-emergence, 31 g/ha); 100% in assay [5] (pre-emergence, 31 g/ha).

`CC=C(Cl)COc1c(Cl)cc(F)c(F)c1Nc1nc(N)nc(C(C)(C)F)n1` [Example 53]: the herbicidal activity in assay [4] (pre-emergence, 62,5 g/ha) worked out at 100%; in assay [3] (pre-emergence, 62,5 g/ha), 98%; in assay [5] (pre-emergence, 62,5 g/ha), 90%.

As for `COc1c(Cl)cc(Cl)c(F)c1Nc1nc(N)nc(C2(F)CCCC2)n1` [Example 60], the herbicidal activity in assay [4] (pre-emergence, 31 g/ha) turned out to be 98%; in assay [6] (pre-emergence, 31 g/ha), 100%; in assay [7], 95%.

`COc1c(Cl)cc(Cl)c(F)c1Nc1nc(N)nc(C(C)F)n1` (stereo not drawn) [Example 63]: the herbicidal activity in assay [4] (pre-emergence, 31 g/ha) is reported as 100%; in assay [6] (pre-emergence, 31 g/ha) it was 80%; in assay [5] (pre-emergence, 31 g/ha), 80%.

Turning to `C#CC(C)Oc1c(Br)cc(F)c(F)c1Nc1nc(N)nc(C2(F)CCCC2)n1` (stereo not drawn) [Example 97], the herbicidal activity is reported as 85% in assay [4] (pre-emergence, 62 g/ha); 85% in assay [6] (pre-emergence, 62 g/ha); 70% in assay [5] (pre-emergence, 62 g/ha).

For the compound `CC#CC(C)Oc1c(Cl)cc(F)c(F)c1Nc1nc(N)nc(C(C)(C)F)n1` (stereo not drawn) [Example 98], the herbicidal activity in assay [4] (pre-emergence, 62 g/ha) turned out to be 100%; in assay [6] (pre-emergence, 62 g/ha) it was 100%; in assay [5] (pre-emergence, 62 g/ha), 100%.

For the compound `CC#CC(C)Oc1c(Cl)cc(F)c(F)c1Nc1nc(N)nc(C2(F)CCCC2)n1` (stereo not drawn) [Example 100], the herbicidal activity in assay [4] (pre-emergence, 62 g/ha) stood at 100%; in assay [3] (pre-emergence, 62 g/ha), 100%; in assay [5] (pre-emergence, 62 g/ha) it was 98%.

Take `CC#CC(C)Oc1c(F)cc(F)c(F)c1Nc1nc(N)nc(C2(F)CCCC2)n1` (stereo not drawn) [Example 104]: the herbicidal activity in assay [8] turned out to be 100%; in assay [2] (pre-emergence, 62,5 g/ha), 100%; in assay [3] (pre-emergence, 62,5 g/ha), 100%.

Regarding `C#CC(C)(F)c1nc(N)nc(Nc2c(F)c(F)cc(Br)c2OC)n1` (stereo not drawn) [Example 115], the herbicidal activity stood at 100% in assay [6] (pre-emergence, 62,5 g/ha); 90% in assay [2] (pre-emergence, 62,5 g/ha); 98% in assay [5] (pre-emergence, 62,5 g/ha).

With `CCC(C)(F)c1nc(N)nc(Nc2c(F)c(F)cc(Cl)c2OC)n1` (stereo not drawn) [Example 116], the herbicidal activity is on record as 100% in assay [6] (pre-emergence, 62,5 g/ha); 100% in assay [2] (pre-emergence, 62,5 g/ha); 100% in assay [5] (pre-emergence, 62,5 g/ha).

Consider `CC#CC(Oc1c(F)cc(F)c(F)c1Nc1nc(N)nc(C(C)(C)F)n1)C1CC1` (stereo not drawn) [Example 119], for which the herbicidal activity in assay [8] was found to be 70%; in assay [4] (pre-emergence, 62,5 g/ha), 85%; in assay [6] (pre-emergence, 62,5 g/ha), 85%.

On to `COc1c(Br)cc(F)c(F)c1Nc1nc(N)nc(C(C)(F)CBr)n1` (stereo not drawn) [Example 123], for which the herbicidal activity in assay [4] (pre-emergence, 62,5 g/ha) came to 100%; in assay [6] (pre-emergence, 62,5 g/ha), 100%; in assay [5] (pre-emergence, 62,5 g/ha) it was 100%.

Consider `CC(C)(F)c1nc(N)nc(Nc2c(F)c(F)cc(Br)c2OC/C=C/Cl)n1` [Example 124], for which the herbicidal activity in assay [8] came to 80%; in assay [4] (pre-emergence, 62,5 g/ha) it was 100%; in assay [6] (pre-emergence, 62,5 g/ha), 100%.

For `CC(C)(F)c1nc(N)nc(Nc2c(F)c(F)cc(Cl)c2OC/C=C/Br)n1` [Example 125], the herbicidal activity in assay [8] is on record as 100%; in assay [4] (pre-emergence, 62,5 g/ha) it was 100%; in assay [6] (pre-emergence, 62,5 g/ha), 100%.

Take `CC(C)(F)c1nc(N)nc(Nc2c(F)c(F)cc(F)c2OC/C=C/Cl)n1` [Example 126]: the herbicidal activity in assay [8] came to 100%; in assay [4] (pre-emergence, 62,5 g/ha), 100%; in assay [6] (pre-emergence, 62,5 g/ha), 100%.

Turning to `CC(C)(F)c1nc(N)nc(Nc2c(F)c(F)cc(F)c2OC/C=C/Br)n1` [Example 127], the herbicidal activity in assay [8] worked out at 100%; in assay [4] (pre-emergence, 62,5 g/ha), 100%; in assay [6] (pre-emergence, 62,5 g/ha) it was 100%.

On to `C#CCOc1c(Cl)cc(F)c(F)c1Nc1nc(N)nc(C2(F)CCCC2)n1` [Example 129], for which the herbicidal activity in assay [8] was found to be 90%; in assay [4] (pre-emergence, 62,5 g/ha) it was 100%; in assay [6] (pre-emergence, 62,5 g/ha) it was 95%.

Take `COc1c(Cl)c(F)c(F)c(F)c1Nc1nc(N)nc(C(C)(C)F)n1` [Example 148]: the herbicidal activity in assay [8] stood at 100%; in assay [6] (pre-emergence, 62,5 g/ha) it was 100%; in assay [5] (pre-emergence, 62,5 g/ha), 100%.

For the compound `COc1c(Br)c(F)c(F)c(F)c1Nc1nc(N)nc(C(C)(C)F)n1` [Example 164], the herbicidal activity in assay [4] (pre-emergence, 62,5 g/ha) was 100%; in assay [6] (pre-emergence, 62,5 g/ha) it was 100%; in assay [5] (pre-emergence, 62,5 g/ha), 100%.

As for `COc1c(C)c(F)c(F)c(F)c1Nc1nc(N)nc(C(C)(C)F)n1` [Example 169], the herbicidal activity in assay [6] (pre-emergence, 62,5 g/ha) came out at 100%; in assay [3] (pre-emergence, 62,5 g/ha), 100%; in assay [5] (pre-emergence, 62,5 g/ha), 100%.

As to `C=CC(C)(F)c1nc(N)nc(Nc2c(F)c(F)c(F)c(Cl)c2OC)n1` (stereo not drawn) [Example 173], the herbicidal activity in assay [4] (pre-emergence, 62,5 g/ha) was found to be 95%; in assay [6] (pre-emergence, 62,5 g/ha), 100%; in assay [5] (pre-emergence, 62,5 g/ha), 100%.

For the compound `COc1c(Cl)c(F)c(F)c(F)c1Nc1nc(N)nc(C(C)(C)OC)n1` [Example 174], the herbicidal activity in assay [8] worked out at 100%; in assay [6] (pre-emergence, 62,5 g/ha), 100%; in assay [5] (pre-emergence, 62,5 g/ha), 98%.
